This passage reports DC50 results from patent US20260355196A1, “INHIBITORS AND DEGRADERS OF PIP4K PROTEIN” (Larkspur Biosciences, Inc., priority 2023, published 2026).

As usually defined, the DC50 is the concentration at which degradation of the target reaches its halfway point.

The first experiment addresses T1, PIP4K2C (Homo sapiens, UniProt Q8TBX8).
T1 sequence (Q8TBX8 1-421): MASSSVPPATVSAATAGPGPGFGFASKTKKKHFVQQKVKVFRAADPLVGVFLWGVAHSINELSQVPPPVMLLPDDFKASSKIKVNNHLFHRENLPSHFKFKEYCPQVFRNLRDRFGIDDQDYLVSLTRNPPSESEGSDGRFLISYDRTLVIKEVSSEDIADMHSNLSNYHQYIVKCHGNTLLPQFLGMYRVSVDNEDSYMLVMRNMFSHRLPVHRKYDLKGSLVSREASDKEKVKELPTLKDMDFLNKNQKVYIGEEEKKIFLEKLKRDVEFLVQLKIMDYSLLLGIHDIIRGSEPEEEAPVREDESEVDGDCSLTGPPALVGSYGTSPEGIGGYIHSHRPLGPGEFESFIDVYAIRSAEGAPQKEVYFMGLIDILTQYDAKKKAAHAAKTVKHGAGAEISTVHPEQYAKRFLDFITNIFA
Description: HiBiT PIP4K2C degradation assay in MOLT-4 cells (endogenous PIP4K2C C-terminally tagged with HiBiT). In kind it is cell-based. Also noted: untagged in primary human PBMCs and monocyte-derived dendritic cells. As to conditions: 6 hours of incubation time, rather than 24 hours; MOLT-4, top concentration 10 micromolar; read-out: HiBIT-degradation MOLT4 PIP4k2C DC50 (6 hours, marked *). The method, boiled down: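 Cells are plated onto compound dilutions (10 points, 3-fold, top 10 micromolar) and incubated 24 or 6 hours at 37 C. Lytic HiBiT detection then quantifies tagged endogenous PIP4K2C in MOLT-4, and a Hill fit yields DC50.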
(With HiBiT, luminescence reflects the tagged protein that the partner subunit can reach.)
With `O=C1CCC(Nc2ccc(C3CCN([C@H]4CC[C@H](C(=O)N[C@H]5CC[C@H](Nc6ncc(F)c(-c7cccc(N8CCOCC8)c7)n6)CC5)CC4)CC3)c(F)c2)C(=O)N1` (stereo partly drawn) [Compound 659, trans-(1r,4R)-4-(4-(4-((2,6-dioxopiperidin-3-yl)amino)-2-fluorophenyl)piperidin-1-yl)-N-((1r,4R)-4-((5-fluoro-4-(3-morpholinophenyl)pyrimidin-2-yl)amino)cyclohexyl)cyclohexane-1-carboxamide], the DC50 was less than 500 nM.

As to `Cn1nc(C2CCC(=O)NC2=O)c2ccc(N3CCN([C@H]4CC[C@H](NC(=O)[C@H]5CC[C@H](Nc6ncc(F)c(-c7cccc(-c8ccc[nH]c8=O)c7)n6)CC5)CC4)CC3)cc21` (stereo partly drawn) [Compound 404, trans-(1r,4R)—N-((1r,4R)-4-(4-(3-(2,6-dioxopiperidin-3-yl)-1-methyl-1H-indazol-6-yl)piperazin-1-yl)cyclohexyl)-4-((5-fluoro-4-(3-(2-oxo-1,2-dihydropyridin-3-yl)phenyl)pyrimidin-2-yl)amino)cyclohexane-1-carboxamide], the DC50 was greater than 5000 nM. Still for that read-out and setting: as for `O=C1CCC(Nc2ccc(C3CCN([C@H]4CC[C@H](NC(=O)[C@H]5CC[C@H](Nc6ncc(F)c(-c7cccc(C8(O)CCC8)n7)n6)CC5)CC4)CC3)c(F)c2)C(=O)N1` (stereo partly drawn) [Compound 479, trans-N-((trans)-4-(4-(4-((2,6-dioxopiperidin-3-yl)amino)-2-fluorophenyl)piperidin-1-yl)cyclohexyl)-4-((5-fluoro-4-(6-(1-hydroxycyclobutyl)pyridin-2-yl)pyrimidin-2-yl)amino)cyclohexane-1-carboxamide], the figure is less than 500 nM; as for `Cn1nc(C2CCC(=O)NC2=O)c2ccc(C3CCN(CC4CCN(C(=O)[C@H]5CC[C@H](Nc6ncc(F)c(-c7cccc(-n8ccccc8=O)c7)n6)CC5)CC4)CC3)cc21` (stereo partly drawn) [Compound 385, trans-3-(6-(1-((1-(4-((5-fluoro-4-(3-(2-oxopyridin-1(2H)-yl)phenyl)pyrimidin-2-yl)amino)cyclohexane-1-carbonyl)piperidin-4-yl)methyl)piperidin-4-yl)-1-methyl-1H-indazol-3-yl)piperidine-2,6-dione], less than 500 nM; as for `O=C1CCC(Nc2ccc(C3CCN(CC4CCN(C(=O)[C@H]5CC[C@H](Nc6ncc(F)c(-c7cccc(N8CCCOC8=O)c7)n6)CC5)CC4)CC3)c(F)c2)C(=O)N1` (stereo partly drawn) [Compound 427, trans-3-((3-fluoro-4-(1-((1-(4-((5-fluoro-4-(3-(2-oxo-1,3-oxazinan-3-yl)phenyl)pyrimidin-2-yl)amino)cyclohexane-1-carbonyl)piperidin-4-yl)methyl)piperidin-4-yl)phenyl)amino)piperidine-2,6-dione], less than 500 nM.

In the case of `O=C1CCC(Nc2ccc(N3CCC(N4CCC(C(=O)N[C@H]5CC[C@H](Nc6ncc(F)c(-c7cccc(-c8ccccc8)c7)n6)CC5)CC4)CC3)c(F)c2)C(=O)N1` (stereo partly drawn) [Compound 649, trans-N-(4-((4-([1,1′-biphenyl]-3-yl)-5-fluoropyrimidin-2-yl)amino)cyclohexyl)-1′-(4-((2,6-dioxopiperidin-3-yl)amino)-2-fluorophenyl)-[1,4′-bipiperidine]-4-carboxamide], the DC50 is less than 500 nM. The same measure, in the same setting: as for `O=C1CCC(Nc2ccc(C3CCN(C[C@H]4CC[C@H](C(=O)N5CCC(Nc6ncc(F)c(-c7cccc(N8CCOCC8)c7)n6)CC5)CC4)CC3)c(F)c2)C(=O)N1` (stereo partly drawn) [Compound 671, trans-3-((3-fluoro-4-(1-((4-(4-((5-fluoro-4-(3-morpholinophenyl)pyrimidin-2-yl)amino)piperidine-1-carbonyl)cyclohexyl)methyl)piperidin-4-yl)phenyl)amino)piperidine-2,6-dione], the figure is less than 500 nM; as for `O=C1CCC(Nc2ccc(N3CCC(N4CCC(NC(=O)[C@H]5CC[C@H](Nc6ncc(F)c(-c7cccc(N8CCCCC8=O)c7)n6)CC5)CC4)C(F)(F)C3)c(F)c2)C(=O)N1` (stereo partly drawn) [Compound 494, trans-N-(1′-(4-((2,6-dioxopiperidin-3-yl)amino)-2-fluorophenyl)-3′,3′-difluoro-[1,4′-bipiperidin]-4-yl)-4-((5-fluoro-4-(3-(2-oxopiperidin-1-yl)phenyl)pyrimidin-2-yl)amino)cyclohexane-1-carboxamide], less than 500 nM. With `O=C1CCC(n2c(=O)oc3cc(C4CCN(CCC5CCN(C(=O)[C@@H]6CCC[C@H](Nc7ncc(F)c(-c8cccc(-n9ccccc9=O)c8)n7)C6)CC5)CC4)ccc32)C(=O)N1` (stereo partly drawn) [Compound 350, 3-(6-(1-(2-(1-((1R,3S)-3-((5-fluoro-4-(3-(2-oxopyridin-1(2H)-yl)phenyl)pyrimidin-2-yl)amino)cyclohexane-1-carbonyl)piperidin-4-yl)ethyl)piperidin-4-yl)-2-oxobenzo[d]oxazol-3 (2H)-yl)piperidine-2,6-dione], the DC50 is less than 500 nM. As for `O=C1CCC(Nc2ccc(C3CCN([C@H]4CC[C@H](C(=O)N[C@H]5CC[C@H](Nc6ncc(F)c(-c7ccnc(N8CCOCC8=O)c7)n6)CC5)CC4)CC3)c(F)c2)C(=O)N1` (stereo partly drawn) [Compound 570, trans-(1r,4R)-4-(4-(4-((2,6-dioxopiperidin-3-yl)amino)-2-fluorophenyl)piperidin-1-yl)-N-((1r,4R)-4-((5-fluoro-4-(2-(3-oxomorpholino)pyridin-4-yl)pyrimidin-2-yl)amino)cyclohexyl)cyclohexane-1-carboxamide], the DC50 is less than 500 nM. Turning to `O=C1CCC(Nc2ccc(N3CCN(CC4(O)CCN(C(=O)[C@H]5CC[C@H](Nc6ncc(F)c(-c7cccc(N8CCCCC8=O)c7)n6)CC5)CC4)CC3)c(F)c2)C(=O)N1` (stereo partly drawn) [Compound 582, trans-3-((3-fluoro-4-(4-((1-(4-((5-fluoro-4-(3-(2-oxopiperidin-1-yl)phenyl)pyrimidin-2-yl)amino)cyclohexane-1-carbonyl)-4-hydroxypiperidin-4-yl)methyl)piperazin-1-yl)phenyl)amino)piperidine-2,6-dione], the DC50 was less than 500 nM. On to `Cn1nc(C2CCC(=O)NC2=O)c2ccc(N3CCN(CC4CCN(C(=O)[C@H]5CC[C@H](Nc6ncc(F)c(-c7cccc(-n8ccccc8=O)c7)n6)CC5)CC4)CC3)cc21` (stereo partly drawn) [Compound 399, 3-(6-(4-((1-(trans-4-((5-fluoro-4-(3-(2-oxopyridin-1(2H)-yl)phenyl)pyrimidin-2-yl)amino)cyclohexane-1-carbonyl)piperidin-4-yl)methyl)piperazin-1-yl)-1-methyl-1H-indazol-3-yl)piperidine-2,6-dione], for which the DC50 is less than 500 nM. Still for that read-out and setting: as for `O=C1CCC(Nc2ccc(C3CCN(C4CCN(C(=O)O[C@H]5CC[C@H](Nc6ncc(F)c(-c7cccc(-n8ccccc8=O)c7)n6)CC5)CC4F)CC3)c(F)c2)C(=O)N1` (stereo partly drawn) [Compound 695, trans-4-((5-fluoro-4-(3-(2-oxopyridin-1 (2H)-yl)phenyl)pyrimidin-2-yl)amino)cyclohexyl 4-(4-((2,6-dioxopiperidin-3-yl)amino)-2-fluorophenyl)-3′-fluoro-[1,4′-bipiperidine]-1′-carboxylate], the figure is less than 500 nM. On the same count and under the same terms, as for `O=C1CCC(Nc2ccc(C3CCN(CC4(O)CCN(C(=O)[C@H]5CC[C@H](Nc6ncc(F)c(-c7cccc(N8CCOCC8)c7)n6)CC5)CC4)CC3)c(F)c2)C(=O)N1` (stereo partly drawn) [Compound 665, 3-((3-fluoro-4-(1-((1-((trans)-4-((5-fluoro-4-(3-morpholinophenyl)pyrimidin-2-yl)amino)cyclohexane-1-carbonyl)-4-hydroxypiperidin-4-yl)methyl)piperidin-4-yl)phenyl)amino)piperidine-2,6-dione], the figure is less than 500 nM. In the case of `Cn1nc(C2CCC(=O)NC2=O)c2ccc(C3CCN([C@H]4CC[C@H](CC(=O)N[C@H]5CC[C@H](Nc6ncc(F)c(-c7cccc(-n8ccccc8=O)c7)n6)CC5)CC4)CC3)cc21` (stereo partly drawn) [Compound 507, trans-2-((1r,4R)-4-(4-(3-(2,6-dioxopiperidin-3-yl)-1-methyl-1H-indazol-6-yl)piperidin-1-yl)cyclohexyl)-N-((1r,4R)-4-((5-fluoro-4-(3-(2-oxopyridin-1(2H)-yl)phenyl)pyrimidin-2-yl)amino)cyclohexyl)acetamide], the DC50 was less than 500 nM.

Staying with this experiment, now noted: 24 hours incubation, MOLT-4, top concentration 10 micromolar; read-out: HiBIT-degradation MOLT4 PIP4k2C 24 hours DC50.
For the compound `O=C1CCC(n2c(=O)oc3cc(N4CCC(CN5CCN(CC(=O)N6CCC(Nc7ncc(F)c(-c8cccc(-n9ccccc9=O)c8)n7)CC6)CC5)CC4)ccc32)C(=O)N1` (centres unmarked) [Compound 378, 3-(6-(4-((4-(2-(4-((5-fluoro-4-(3-(2-oxopyridin-1(2H)-yl)phenyl)pyrimidin-2-yl)amino)piperidin-1-yl)-2-oxoethyl)piperazin-1-yl)methyl)piperidin-1-yl)-2-oxobenzo[d]oxazol-3 (2H)-yl)piperidine-2,6-dione], the DC50 is less than 500 nM. Same read-out and setting: as for `O=C1CCC(n2c(=O)oc3c(C4CCN(C(=O)CN5CCC(C(=O)N6CCC(Nc7ncc(Cl)c(-c8cccc(-c9ccc(F)cc9)c8)n7)CC6)CC5)CC4)cccc32)C(=O)N1` (centres unmarked) [Compound 293, 3-(7-(1-(2-(4-(4-((5-chloro-4-(4′-fluoro-[1,1′-biphenyl]-3-yl)pyrimidin-2-yl)amino)piperidine-1-carbonyl)piperidin-1-yl)acetyl)piperidin-4-yl)-2-oxobenzo[d]oxazol-3 (2H)-yl)piperidine-2,6-dione], the figure is less than 500 nM.
